# Assay results from patent publication US20250255978A1, “DRUG-DELIVERY NANOPARTICLES AND TREATMENTS FOR DRUG-RESISTANT CANCER” (Cedars-Sinai Medical Center, priority 2016, published 2025).
# Assays:
# Test in all cases: Cell viability assay (MTS), relative cell survival
# Conditions in all cases: dose range, 4 h + 44 h incubation
# [1] = tested on: BT474 (human breast cancer) cells; assay type: cell-based
# Procedure: (§1) Plates were rocked for 4 hours at 37° C. and 5% CO2 and then 60 μL of complete media was added to each well to bring the total volume to 100 μL and the incubation was continued, without rocking, for 44 hours at 37° C. and 5% CO2. At the conclusion of the incubation, relative cell viability was determined via MTS assay (Promega) according to manufacturer's instructions. Specifically, the media was removed from the wells and 100 μL of fresh complete media was added to each well. 20 μl of the prepared MTS reagent was added to each well. The plate was then incubated with rocking at 37° C. and 5% CO2 and readings were taken of the plate at 1, 2, and 3 hours at 490 nm using a spectrophotometer.
# (§2) The cells per well were plated in black-walled, clear-bottom, 96-well plates. […] At the conclusion of the incubation, relative cell viability was determined via MTS assay (Promega) according to manufacturer's instructions. […] The plate was then incubated with rocking at 37° C. and 5% CO2 and readings were taken of the plate at 1, 2, and 3 hours at 490 nm using a spectrophotometer. […]
# (§3) The cells per well were plated in black-walled, clear-bottom, 96-well plates. […] At the conclusion of the incubation, relative cell viability was determined via MTS assay (Promega) according to manufacturer's instructions. […]
# [2] = tested on: BT474-TR (trastuzumab-resistant human breast cancer) cells; assay type: cell-based
# Procedure: as §1, with “The cells per well were plated in black-walled, clear-bottom, 96-well plates. […] Plates” for “Plates”
# as §3, §3
# [3] = tested on: JIMT1 (human breast cancer cells from a patient naturally resistant to trastuzumab); assay type: cell-based
# Procedure: as §1, with “Relative cell survival after exposure to the described compositions was measured using a cell viability assay. 15,000, 10,000, or 8,000 cells per well were plated in black-walled, clear-bottom, 96-well plates. […] Plates” for “Plates”, “spectrophotometer. […]” for “spectrophotometer.”
# as §2, with “concentration of Eos-001 is reported” for “cells per well were plated”, “μM doxorubicin, and the concentration of lapatinib is reported in μM lapatinib.” for “black-walled, clear-bottom, 96-well plates.”, “on” for “using a”
# [4] = tested on: SKBR3 (human breast cancer) cells; assay type: cell-based
# Procedure: as §1, with “The cells per well were plated in black-walled, clear-bottom, 96-well plates. […] Plates” for “Plates”
# (§4) To verify the contribution of HER3 targeted toxicity of the Eos-001 nanoparticles, a HER3 peptide was used as a competitive inhibitor. The HER3 peptide was pre-incubated with the Eos-001 particles, which bound the heregulin targeting domain. […]
# as §3
# [5] = tested on: SKBR3-TR (trastuzumab resistant breast cancer) cells; assay type: cell-based, human
# Procedure: as §1, with “The cells per well were plated in black-walled, clear-bottom, 96-well plates. […] Plates” for “Plates”
# as §4, §3
compound,measurement,setting,value
CS(=O)(=O)CCNCc1ccc(-c2ccc3ncnc(Nc4ccc(OCc5cccc(F)c5)c(Cl)c4)c3c2)o1 [lapatinib],effect on survival / killing of BT474 cells,[1],similarly effective
same,killing of BT474-TR cells,[2],slightly effective
same,effect on survival / killing of JIMT1 cells,[3],unable to kill
same,killing of SKBR3 cells,[4],similarly effective
same,killing of SKBR3-TR cells,[5],slightly effective
